Source: patent US20130123367A1, “VINYLOGOUS CHALCONE DERIVATIVES AND THEIR MEDICAL USE” (MEDIZINISCHE UNIVERSITAT WIEN, priority 2010, published 2013)
Where two headings read alike, the source gives them in different places.

Columns and labels:
[1] = tested on: SU-DHL-9 (Non Hodgkin's lymphoma); experiment: Cell viability assay using EZ4U viability kit, SU-DHL-9; type: cell-based
Protocol: (§1) For quantification, cells are treated with a tetrazolium salt as indicator of cell viability. […] Then, the solution is analyzed photometrically at 450 nm with 620 nm as reference.
(§2) The final DMSO concentration was 0.5%. […] Then, wells were filled with 20 μl substrate solution for 2 to 4 hours and analyzed.
(§3) Cell viability was calculated relative to DMSO control for data comparison. IC50 values (50% inhibition of cell growth) were determined with GraphPad Prism® (Version 4.03) using nonlinear regression (sigmoidal dose-response with variable slope).

[2] = tested on: HL60 (Acute promyelocytic leukemia); experiment: Cell viability assay using EZ4U viability kit, HL60; type: cell-based; details: Homo sapiens
Protocol: as §1, §2, §3

[3] = tested on: colon cancer cell line SW480; experiment: Cell proliferation assay using crystal violet, SW480; type: cell-based; details: Homo sapiens, n = 3, 24 h incubation
Protocol: (§4) For quantification, cells are treated with crystal violet, a dye that stains proteins. After washing away of excess dye, the remaining crystal violet is dissolved in a sodium citrate solution. The solution is analyzed photometrically at 590 nm. The optical density of this solution depends on the concentration of crystal violet and therefore on the amount of cells. […] To reduce effects of evaporation, only the inner 60 wells of 96-well plates (coated with 0.1% gelatine solution for studies with HUVEC) were used for experiments.
(§5) Cells were seeded at a density of 5 000 cells per well in 100 μl growth medium (HUVEC) or 20 000 (HCT116), 15 000 (SW480 and 518A2) or 10 000 (HT29) cells per well in 200 μl growth medium in 55 wells per plate. 5 wells were filled with medium only. Additionally, a 96-well plate with cells in 12 wells and medium in 6 wells was prepared as T0-plate. The next day, additional 98 μl of growth medium were added in every well (only HUVEC).
(§6) Cells were treated with 2 μl of the working solution 24 h after seeding. Final compound concentrations in the well were 10 μM for the first round of screening. The final DMSO concentration was 0.5%. […] After finishing the addition of compounds, the T0-plate was stained with crystal violet for giving the cell density at time point zero. Before staining, the growth medium was poured away. Wells were filled with 50 μl crystal violet solution for 10 min. Then the staining solution was washed away with water. Since crystal violet is environmentally hazardous the waste was collected and disposed in an appropriate manner. After air drying of the plates the crystal violet on the cells was dissolved in 100 μl of sodium citrate solution, and the absorption was measured with a plate reader at 590 nm.
as §3, with “Mean values were corrected with the absorption of stained medium and the corrected absorption of T0 cells. Cell” for “Cell”, “growth” for “viability”
(§7) Compounds showing an inhibition of proliferation of more than 50% at a concentration of 10 μM were defined as active, and their IC50-values were determined.

melanoma cell line 518A2 = experiment: Cell proliferation assay using crystal violet, 518A2; type: cell-based; details: for IC50: Homo sapiens, 518A2, crystal violet assay, n = 3, 48 h incubation
Protocol: as §4, §5, §6
as §3, with “Mean values were corrected with the absorption of stained medium and the corrected absorption of T0 cells. Cell” for “Cell”, “growth” for “viability”
as §7

SW480 cells = experiment: Cell cycle analysis by flow cytometry; type: cell-based; details: 0.03, 0.1 or 0.3 μM compared to DMSO control; FIG. 5
Protocol: FIG. 5: Cell cycle analysis using SW480 cells treated with 0 μM (control using DMSO), 0.03 μM, 0.1 μM or 0.3 μM of compound 22.
To quantify the cellular DNA content, DNA is visualized by staining with propidium iodide (PI), a fluorescent dye which binds to double stranded DNA. To allow PI to enter cells they are permeabilized with Triton-X. The fluorescence intensity per cell, which correlates with its DNA content, is measured by flow cytometry. The G0/G1 peak represents cells in the usual diploid state. Apoptotic cells are characterized through a peak in the FACS histogram below the G0/G1 peak (sub G1) (Nicoletti I et al. J. Immunol. Methods 1991, 139 (2), 271-279):
Since cells in different phases of the cell cycle have a different DNA content this method can also be used for measuring the amount of cells in different stages of the cell cycle. Cells were seeded in 12-well plates at a density 10 fold more than used in 96-well plates in 2 ml growth media. Cells were incubated for one day, until they reached 50-70% confluence. Then they were stimulated with different concentrations of the test compounds, according to the data available from proliferation assays. […]
Cells were measured by flow cytometry 50-150 events/second with a total of 10 000 events using channel FL2-A. Data were analyzed with CellQuest Pro™. Mean values from different repeats were analyzed using GraphPad Prism® 4.03.

[4] = tested on: Jurkat (T-cell acute lymphoblastic leukemia); experiment: Cell viability assay using EZ4U viability kit, Jurkat; type: cell-based; details: Homo sapiens
Protocol: as §1, §2, §3

HUVEC = experiment: Cell proliferation assay using crystal violet, HUVEC; type: cell-based; details: Homo sapiens
Protocol: as §4, §5, §6
Mean values were corrected with the absorption of stained medium and the corrected absorption of T0 cells. Cell growth was calculated relative to DMSO control for data comparison.

[5] = tested on: colon carcinoma cell line HCT116p53ko; experiment: Crystal violet assay, HCT116p53ko; type: cell-based; details: n = 3
Protocol: as §4
(§8) Cells were treated with 2 μl of the working solution 24 h after seeding. Final compound concentrations in the well were 10 μM for the first round of screening. The final DMSO concentration was 0.5%. […] After finishing the addition of compounds, the T0-plate was stained with crystal violet for giving the cell density at time point zero. […] After air drying of the plates the crystal violet on the cells was dissolved in 100 μl of sodium citrate solution, and the absorption was measured with a plate reader at 590 nm.
as §3, with “Mean values were corrected with the absorption of stained medium and the corrected absorption of T0 cells. Cell” for “Cell”, “growth” for “viability”, “slope). […]” for “slope).”

[6] = tested on: colon carcinoma cell line HCT116p53 wild type; experiment: Crystal violet assay, HCT116p53wt; type: cell-based; details: n = 3
Protocol: as §4, §8
as §3, with “Mean values were corrected with the absorption of stained medium and the corrected absorption of T0 cells. Cell” for “Cell”, “growth” for “viability”, “slope). […]” for “slope).”

[7] = tested on: vascular smooth muscle cells (VSMC); experiment: Crystal violet assay, VSMC; type: cell-based; details: Rattus norvegicus, n = 3
Protocol: as §4, §8
as §3, with “Mean values were corrected with the absorption of stained medium and the corrected absorption of T0 cells. Cell” for “Cell”, “growth” for “viability”, “slope). […]” for “slope).”

[8] = tested on: breast cancer cell line MDA MB231; experiment: Crystal violet assay, MDA MB231; type: cell-based; details: Homo sapiens, MDA-MB-231, n = 3
Protocol: as §4, §8
as §3, with “Mean values were corrected with the absorption of stained medium and the corrected absorption of T0 cells. Cell” for “Cell”, “growth” for “viability”, “slope). […]” for “slope).”

[9] = 24 h incubation, read-out: IC50 (nM) SU-DHL-9 24 h
[10] = 48 h incubation, read-out: IC50 (nM) SU-DHL-9 48 h
[11] = HL-60, 24 h incubation, read-out: IC50 (nM) HL60 24 h
[12] = HL-60, 48 h incubation, read-out: IC50 (nM) HL60 48 h
[13] = 24 h incubation, read-out: IC50 (nM) Jurkat 24 h (converted)
[14] = 48 h incubation, read-out: IC50 (nM) Jurkat 48 h (converted)

melting point [°C] | IC50 [1, 9] [nM] | IC50 [1, 10] [nM] | IC50 [2, 11] [nM] | IC50 [2, 12] [nM] | IC50 [3] [nM] | IC50 (melanoma cell line 518A2) [nM] | IC50 [4, 13] [nM] | IC50 [4, 14] [nM] | IC50 [5] [nM] | IC50 [6] [nM] | IC50 [7] [nM] | IC50 [8] [nM] | Compound | potency relative to cisplatin (melanoma cell line 518A2; melanoma cell line 518A2, ratio of IC50 values) | “DNA>4N” portion (inhibition of cell division) (SW480 cells) | “Sub G1” portion (induction of apoptosis) (SW480 cells) | IC50 (HUVEC; n = 3, 48 h incubation, read-out: IC50 (nM) HUVEC (converted)) [nM] | IC50 (HUVEC; n = 3, read-out: IC50 (nM) HUVEC (Table 2)) [nM]
96 to 97 | 30 | 50 | 10 | 20 | 30 | 40 | 7840 | 7210 | – | – | – | – | CCOc1ccccc1C(=O)/C=C/c1ccc2ccccc2c1 [Compound 22, 3-(2-Naphthyl)-1-(2′-ethoxyphenyl)-2-propene-1-one] | about 250 times | increase | increase | – | –
– | 60 | 50 | 490 | 170 | 520 | 150 | 1110 | 630 | 100 | 280 | > 100000 | 630 | COc1ccccc1/C=C/C=C/C(=O)c1cc(OC)c(OC)c(OC)c1 [Compound 1, 5-(2-Methoxyphenyl)-1-(3′,4′,5′-trimethoxyphenyl)-2,4-pentadiene-1-one] | – | – | – | 340 | 280
